Legend:
Type in all cases: functional, cell-based
CCRF-CEM = assay: Cytotoxicity in human CEM cells assessed as reduction in cell viability incubated for 72 hrs by calcein AM cytotoxicity assay
G-361 = assay: Cytotoxicity in human G361 cells assessed as reduction in cell viability incubated for 72 hrs by calcein AM cytotoxicity assay
MCF7 = assay: Cytotoxicity in human MCF7 cells assessed as reduction in cell viability incubated for 72 hrs by calcein AM cytotoxicity assay
HeLa = assay: Cytotoxicity in human HeLa cells assessed as reduction in cell viability incubated for 72 hrs by calcein AM cytotoxicity assay
BJ = assay: Cytotoxicity in human BJ cells assessed as reduction in cell viability incubated for 72 hrs by calcein AM cytotoxicity assay

SMILES	IC50 (CCRF-CEM; Homo sapiens, CCRF-CEM, 72 h) [µM]	IC50 (G-361; Homo sapiens, G-361, 72 h) [µM]	IC50 (MCF7; Homo sapiens, MCF7, 72 h) [µM]	IC50 (HeLa; Homo sapiens, HeLa, 72 h) [µM]	IC50 (BJ; Homo sapiens, BJ, 72 h) [µM]	IC50 (HeLa; hela) [µM]	IC50 (G-361; g-361) [µM]	IC50 (MCF7; mcf7) [µM]	IC50 (BJ; bj) [µM]	IC50 (CCRF-CEM; ccrf-cem) [µM]
CC(=O)O[C@H]1CC[C@]2(C)[C@H]3CC[C@@H]4C5=C(C(C)C)C(=O)C[C@]5(C(=O)O[C@@H]5O[C@H](CO)[C@@H](O)[C@H](O)[C@H]5O)CC[C@@]4(C)[C@]3(C)CC[C@H]2C1(C)C	12.2	6.7	6.6	9.3	48.2	–	–	–	–	–
COCCOCCOC(=O)[C@]1(COC(C)=O)CC[C@]2(C)[C@H](CC[C@@H]3[C@@]4(C)CC[C@H](OC(C)=O)C(C)(C)[C@@H]4CC[C@]32C)C1=O	> 50	> 50	> 50	> 50	> 50	–	–	–	–	–
C=C(C)[C@@H]1CC[C@]2(C(=O)OCCN3CCOCC3)CC[C@]3(C)[C@H](CC[C@@H]4[C@@]5(C)CC[C@H](O)C(C)(C)[C@@H]5CC[C@]43C)[C@@H]12 [listing 1 of 2 here]	> 50	–	–	–	–	> 50	–	–	–	–
CC(C)[C@@H]1CC[C@]2(C(=O)O[C@@H]3O[C@H](CO)[C@@H](O)[C@H](O)[C@H]3O)CC[C@]3(C)[C@H](CC[C@@H]4[C@@]5(C)CC[C@H](O)C(C)(C)[C@@H]5CC[C@]43C)[C@@H]12	> 50	> 50	> 50	> 50	> 50	–	–	–	–	–
CC(=O)OC[C@H]1O[C@@H](OC(=O)[C@]23CC[C@@H](C(C)C)[C@@H]2[C@H]2CC[C@@H]4[C@@]5(C)CC[C@H](O)C(C)(C)[C@@H]5CC[C@@]4(C)[C@]2(C)CC3)[C@H](OC(C)=O)[C@@H](OC(C)=O)[C@H]1OC(C)=O	8.6	4.7	2.8	5.1	> 50	–	–	–	–	–
COCCOC(=O)[C@]1(COC(C)=O)CC[C@]2(C)[C@H](CC[C@@H]3[C@@]4(C)CC[C@H](OC(C)=O)C(C)(C)[C@@H]4CC[C@]32C)C1=O	> 50	> 50	> 50	> 50	> 50	–	–	–	–	–
C=C(C=O)[C@@H]1CC[C@]2(C(=O)OCCN3CCOCC3)CC[C@]3(C)[C@H](CC[C@@H]4[C@@]5(C)CC[C@H](O)C(C)(C)[C@@H]5CC[C@]43C)[C@@H]12	3.8	5.3	2.2	11	19.2	–	–	–	–	–
CC(=O)O[C@H]1CC[C@]2(C)[C@H]3CC[C@@H]4C5=C(C(C)C)C(=O)C(=O)[C@]5(C(=O)OCCN5CCOCC5)CC[C@@]4(C)[C@]3(C)CC[C@H]2C1(C)C	8.1	2.2	18.3	5.5	25.3	–	–	–	–	–
CC(=O)O[C@H]1CC[C@]2(C)[C@H]3CC[C@@H]4C5=C(C(C)C)C(=O)C[C@]5(C(=O)OCC(=O)O)CC[C@@]4(C)[C@]3(C)CC[C@H]2C1(C)C	24.2	45.6	> 50	47.9	> 50	–	–	–	–	–
CC(=O)OC[C@@]1(C(=O)OCCN2CCCC2)CC[C@]2(C)[C@H](CC[C@@H]3[C@@]4(C)CC[C@H](OC(C)=O)C(C)(C)[C@@H]4CC[C@]32C)C1=O	25.8	20.3	> 50	> 50	> 50	–	–	–	–	–
CC(=O)OC[C@H]1O[C@@H](OC(=O)[C@@]23CC[C@]4(C)[C@H](CC[C@@H]5[C@@]6(C)CC[C@H](OC(C)=O)C(C)(C)[C@@H]6CC[C@]54C)C2=C(C(C)C)C(=O)C3)[C@H](OC(C)=O)[C@@H](OC(C)=O)[C@@H]1OC(C)=O	9.1	4.3	3.8	9.8	> 50	–	–	–	–	–
C=C(C)[C@@H]1CC[C@]2(C(=O)OCCN3CCOCC3)CC[C@]3(C)[C@H](CC[C@@H]4[C@@]5(C)CC[C@H](O)C(C)(C)[C@@H]5CC[C@]43C)[C@@H]12 [listing 2 of 2 here]	–	> 50	> 50	50	> 50	–	–	–	–	–
CC(=O)OC[C@@]1(C(=O)OCC(=O)OCc2ccccc2)CC[C@]2(C)[C@H](CC[C@@H]3[C@@]4(C)CC[C@H](OC(C)=O)C(C)(C)[C@@H]4CC[C@]32C)C1=O	> 50	> 50	> 50	> 50	> 50	–	–	–	–	–
CC(=O)O[C@H]1CC[C@]2(C)[C@H]3CC[C@@H]4C5=C(C(C)C)C(=O)C[C@]5(C(=O)O[C@@H]5O[C@H](CO)[C@H](O)[C@H](O)[C@H]5O)CC[C@@]4(C)[C@]3(C)CC[C@H]2C1(C)C	18.8	42.7	37	38.8	48.2	–	–	–	–	–
COCCOC(=O)[C@@]12CC[C@]3(C)[C@H](CC[C@@H]4[C@@]5(C)CC[C@H](OC(C)=O)C(C)(C)[C@@H]5CC[C@]43C)C1=C(C(C)C)C(=O)C2	17.8	19.9	42.5	> 50	> 50	–	–	–	–	–
C=C(C)[C@@H]1CC[C@]2(C(=O)O[C@@H]3O[C@H](COC(C)=O)[C@@H](OC(C)=O)[C@H](OC(C)=O)[C@H]3OC(C)=O)CC[C@]3(C)[C@H](CC[C@@H]4[C@@]5(C)CC[C@H](O)C(C)(C)[C@@H]5CC[C@]43C)[C@@H]12	> 50	> 50	> 50	> 50	> 50	–	–	–	–	–
CC(C)[C@@H]1CC[C@]2(C(=O)OCC(=O)O)CC[C@]3(C)[C@H](CC[C@@H]4[C@@]5(C)CC[C@H](O)C(C)(C)[C@@H]5CC[C@]43C)[C@@H]12	> 50	> 50	> 50	> 50	> 50	–	–	–	–	–
COCCOC(=O)[C@]12CC[C@@H](C(C)C)[C@@H]1[C@H]1CC[C@@H]3[C@@]4(C)CC[C@H](O)C(C)(C)[C@@H]4CC[C@@]3(C)[C@]1(C)CC2	38.4	38.6	44.4	21.5	26.5	–	–	–	–	–
CC(=O)OC[C@@]1(C(=O)OCCN2CCCCC2)CC[C@]2(C)[C@H](CC[C@@H]3[C@@]4(C)CC[C@H](OC(C)=O)C(C)(C)[C@@H]4CC[C@]32C)[C@@H]1O	> 50	> 50	27.2	> 50	> 50	–	–	–	–	–
CC(C)[C@@H]1CC[C@]2(C(=O)O[C@@H]3O[C@H](CO)[C@H](O)[C@H](O)[C@H]3O)CC[C@]3(C)[C@H](CC[C@@H]4[C@@]5(C)CC[C@H](O)C(C)(C)[C@@H]5CC[C@]43C)[C@@H]12	> 50	> 50	> 50	> 50	> 50	–	–	–	–	–
CC(=O)O[C@H]1CC[C@]2(C)[C@H]3CC[C@@H]4C5=C(C(C)C)C(=O)C[C@]5(C(=O)OCCN5CCCCC5)CC[C@@]4(C)[C@]3(C)CC[C@H]2C1(C)C	21.2	–	–	–	–	9.1	7.2	5.8	44.6	–
CC(=O)OC[C@@]1(C(=O)OCC(=O)O)CC[C@]2(C)[C@H](CC[C@@H]3[C@@]4(C)CC[C@H](OC(C)=O)C(C)(C)[C@@H]4CC[C@]32C)C1=O	32.4	> 50	> 50	> 50	7	–	–	–	–	–
CC(=O)OC[C@@]1(C(=O)OCCBr)CC[C@]2(C)[C@H](CC[C@@H]3[C@@]4(C)CC[C@H](OC(C)=O)C(C)(C)[C@@H]4CC[C@]32C)[C@@H]1O	> 50	> 50	> 50	> 50	> 50	–	–	–	–	–
C=C(C)[C@@H]1CC[C@]2(C(=O)OCCN3CCCC3)CC[C@]3(C)[C@H](CC[C@@H]4[C@@]5(C)CC[C@H](O)C(C)(C)[C@@H]5CC[C@]43C)[C@@H]12	–	–	–	–	–	–	7.1	14.3	15.5	2.3
CC(C)[C@@H]1CC[C@]2(C(=O)OCCN3CCCCC3)CC[C@]3(C)[C@H](CC[C@@H]4[C@@]5(C)CC[C@H](O)C(C)(C)[C@@H]5CC[C@]43C)[C@@H]12	26.7	–	–	–	–	–	29.9	26.1	46.5	–

— ChEMBL document CHEMBL4190365, “Synthesis and antiproliferative properties of new hydrophilic esters of triterpenic acids” (Eur J Med Chem, 2017)
